Results on 2 compounds are retold here after paper PMC2952853 (Nucleic Acids Research, 2010).

Assay [1] has as its target T1, RutR (RutR-His6; YcdC) (Escherichia coli, UniProt P0ACU2).
T1 sequence (P0ACU2 1-212): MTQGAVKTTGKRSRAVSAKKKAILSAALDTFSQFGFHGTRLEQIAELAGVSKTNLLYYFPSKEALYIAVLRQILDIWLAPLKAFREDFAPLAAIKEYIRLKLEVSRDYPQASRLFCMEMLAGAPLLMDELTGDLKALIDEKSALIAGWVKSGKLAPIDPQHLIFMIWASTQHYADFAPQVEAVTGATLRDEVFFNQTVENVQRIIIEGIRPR
It is filed as binding. The following applies: read-out: % inhibition at 100 μM.

The target in assay [2] is T1, RutR (RutR-His6; YcdC). Put plainly: EMSA, inhibition of RutR binding to […]-labelled carP1. (In general: In EMSA bound probe runs differently from free probe, usually more slowly.)

The inhibition is the drop in the measured response relative to a control, in per cent. For `Cc1c[nH]c(=O)[nH]c1=O` [thymine], the inhibition at 100 µM in assay [1] was ~50%.

One may read the IC50 as the point on the concentration scale where inhibition reaches its midpoint. Turning to `O=c1cc[nH]c(=O)[nH]1` [uracil], in assay [2], the IC50 was ~100 nM.
